From patent US20190105337A1, “METHODS OF TREATING BACTERIAL INFECTIONS” (priority 2015, published 2019) come the findings set out here.

A short description of this data set: Example 6: plasma, epithelial lining fluid (ELF) and alveolar macrophage (AM) concentrations at bronchoscopy with BAL. The settings on record: 8-hour sampling time. The protocol:
A total of twenty-five (n=25) male and female subjects who met the study entry criteria and completed all phases of the pharmacokinetic study were included in this pharmacokinetic analysis. […] Blood samples were collected to measure drug concentrations in plasma prior to (time 0), and at 1.5, 2.95, 3.083, 3.25, 3.5, 4, 6, and 8 hours after the start of a 3-hour intravenous infusion of the third combination dose.
Urea has been commonly used as an endogenous marker to estimate the apparent volume of ELF. Blood samples to determine plasma urea concentrations were obtained just prior to scheduled bronchoscopy. Aliquots of BAL were obtained to determine urea concentrations in BAL and cell count with differential. The standardized bronchoscopy with BAL procedure for the collection of intrapulmonary samples has been previously described in the references listed below.
(Reports MC14B-0013, MC14B-0015, MC14I-011, and MC14I-0012). The urea concentrations in plasma and BAL were performed with a microplate-based method with an 0-phthalaldehyde chromogenic solution at MicroConstants, Inc., San Diego, Calif.
The calculations of ELF volume and drug concentrations in ELF and AM were performed with BAL supernatant and pulmonary (alveolar) cells (“cell pellet”) from aspirates recovered from the 2nd, 3rd, and 4th instillations (BAL2). The concentration of drug (ABXELF) in the epithelial lining fluid (ELF) was determined as follows:
[…]
VELF is derived from the following:
where UreaBAL is the concentration of urea in BAL fluid and UreaP is the concentration of urea in plasma.
The concentration of drug (ABXAM) in the alveolar cells (AC) was determined as follows:
Differential cell count was performed to determine the number of macrophages present. A mean macrophage cell volume of 2.42 μl/106 cells was used in the calculations for volume of alveolar cells in the pellet suspension.
The concentration ratios of ELF and AM to the simultaneous plasma concentrations were calculated for each subject and summarized for each group at each sampling time. […] The 8-hour sampling time was also used as a value at time zero for determining the area term of plasma, ELF, and AM. The AUC0-8 for each matrix was determined with the linear trapezoidal method. The ratio of AUC0-8 of ELF to plasma and AM to plasma were calculated.

Take `C[C@@H](O)[C@@H](C(=O)O)[C@@H]1NC(C(=O)O)=C(S[C@@H]2CN[C@H](C(=O)N(C)C)C2)[C@@H]1C` [meropenem open-lactam]: the ELF concentrations entry is given as “below the quantifiable limit”.
